Where two headings read alike, the source gives them in different places.
What was measured:
M-MDSC = assay: In vitro differentiation of MDSCs from bone marrow cells, flow cytometry; assay type: cell-based, mouse; conditions: for IC50: Mus musculus, Bone marrow cell
Source text: (§1) FIG. 5. In vitro differentiation of MDSCs and suppressive neutrophils in the presence of different concentrations of Mito14-HU and Mito-HUs with varying hydrophobicities (A) Scheme of differentiation of MDSCs. (B) Representative flow cytometry contour plots of in vitro differentiation of MDSCs under varying concentrations of Mito14-HU using FlowJo Software (FlowJo Software, 2019). (C) Summary data depicting distribution of MDSCs after three days treatment with Mito14-HU generated from panel (B). (D and E) (D) Dose-dependent effects of Mito-HUs with different side chain lengths on M-MDSC and (E) suppressive neutrophils. Dashed lines represent the fitting curves used for determination of the IC50 values. Data shown are the means & SD.
(§2) MDSCs were generated from bone marrow cells isolated from C57b1/6 mice and cultured at a density of 1 3 10^6 cells/ml in RPMI with 10% fetal bovine serum and 25 ng/ml recombinant mouse GM-CSF (Shenandoah Biotechnology, Inc.) and 25 ng/ml recombinant mouse IL-6 (Shenandoah Biotechnology, Inc.) for three days. Then, cells were re-cultured in fresh media with inhibitors for an additional three days. Cells were scraped and examined by flow cytometry using the following markers: FITC-anti Ly6C (Biolegend, San Diego, CA), PE-Cy7 anti F4/80 (Biolegend), APC-Cy7 anti Ly6G (Biolegend), and Pacific Blue anti-CD11b (Biolegend). A gating strategy similar to that employed for the T cells was used in all MDSC differentiation assays, which were tested only on live cells after treatments. Flow cytometry data were acquired using a BD Celesta flow cytometer (BD Biosciences), and data were analyzed using FlowJo software (Treestar, Inc.).

suppressive neutrophils = assay: as above; assay type: cell-based, mouse; conditions: for IC50: Mus musculus, Neutrophil, 72 h, read-out: IC50 Suppressive Neutrophils (FIG. 6); for effect on suppressive neutrophils: three days
Source text: as §1, §2

[1] = test system: HCT116 human colon cancer cells; assay: Cell proliferation (cell confluence), IncuCyte Live-Cell Analysis system; assay type: cell-based; conditions: for Cell Confluence (%): when control cells reached ~90% confluence, n = 4; for IC50: Homo sapiens, at ~90% confluence of control
Source text: FIG. 1. Effects of HU and Mito-HUs on proliferation of HCT116 human colon cancer cells (A) Effects of HU and Mito-HUs on the proliferation of HCT116 cells were monitored in the IncuCyte Live-Cell Analysis system. The IncuCyte Analyzer provides real-time updates on cell confluence, based on segmentation of high definition-phase contrast images. Representative cell images were shown as segmentation mask illustrated in brown when control cells reached 90% confluence (vertical solid black line). (B) The IC50 values were determined at the point at which control cells reached ˜90% confluence (vertical solid black line). Relative cell confluence (control is taken as 100%) is plotted against concentration. Dashed lines represent the fitting curves used to determine the IC50 values as indicated. Data shown are the means & SD.
The following cell lines were obtained from the American Type Culture Collection (Manassas, VA), where they were regularly authenticated: HCT116 (ATCC Cat #CRL-247, human colon cancer cells) and MiaPaCa-2 (ATCC Cat #CRL-1420, human pancreatic cancer cells). All cells were cultured in a humidified incubator at 37° C. and 5% carbon dioxide. HCT116 cells were maintained in RPMI 1640 medium (Thermo Fisher Scientific, Cat #11875), supplemented with 10% fetal bovine serum. MiaPaCa-2 cells were maintained in Dulbecco's Modified Eagle Medium (Thermo Fisher Scientific, Waltham, MA; Cat #11965) supplemented with 10% fetal bovine serum. All cells were stored in liquid nitrogen and used within 20 passages after thawing.
The IncuCyte Live-Cell Analysis system (Essen Bioscience Inc., Ann Arbor, MI) was used to monitor cell proliferation (Cheng et al., 2013, 2016; Boyle et al., 2018). As shown in previous publications (Cheng et al., 2013, 2016), this imaging system is probe-free and noninvasive, and enables continuous monitoring of cell confluence over several days. The increase in the percentage of cell confluence was used as a surrogate marker of cell proliferation. In a 96-well plate, cells were plated at 1,000 cells per well in triplicates and left to adhere overnight. Cells were then treated with HU and Mito-HUs, and the cell confluency was recorded over several days in the IncuCyte Live-Cell Analysis system.

[2] = test system: mitochondrial complex III; assay: Complex III-dependent oxygen consumption (OCR), Seahorse XF-96, HCT116 cells; assay type: cell-based, human; conditions: 24 hr, HCT116, n = 4
Procedure, shortened: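 HCT116 cells were treated with compound for 24 hr, then acutely permeabilized. OCR was read on a Seahorse XF-96 in mannitol/sucrose buffer. Complex I: 10 mM pyruvate/1.5 mM malate plus 10 mM malonate. Complex III: 0.5 mM duroquinol with […] and 10 mM malonate. IC50 was fitted to rotenone- or antimycin A-inhibitable OCR.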

[3] = HCT-116, mean ± SD, HCT116, read-out: IC50 Cell Proliferation (FIG. 1)
[4] = 72 h, read-out: IC50 M-MDSC (FIG. 6)
[5] = read-out: IC50 frequency of M-MDSCs
[6] = HCT-116, HCT116, read-out: IC50 proliferation of HCT116 cells

Row | Compound | Cell Confluence (%) ([1]; 10 μM) | Cell Confluence (%) ([1]; 30 μM) | Cell Confluence (%) ([1]; 100 μM) | IC50 [1, 3] [nM] | IC50 (M-MDSC; [4]) [nM] | IC50 (M-MDSC; [5]) [nM] | IC50 (suppressive neutrophils) [nM] | inhibition of proliferation of HCT116 cells ([1]; HCT116) | IC50 [1, 6] [nM] | effect on suppressive neutrophils (suppressive neutrophils) | Complex III activity (OCR, % of control) ([2]; 0.5 μM) | also measured
1 | NC(=O)NO [HU, Hydroxyurea] | 89.91 | 91.61 | 66.96 | 180000 ± 6700 | – | – | – | – | – | – | – | IC50 (M-MDSC; 72 h, mean ± SD, three days treatment, read-out: IC50 M-MDSC (FIG. 6)): 84000 ± 2800 nM; IC50 (suppressive neutrophils; mean ± SD, three days treatment): 18000 ± 1900 nM; Cell Confluence (%) ([1]; 150 μM): 48.62%; Cell Confluence (%) ([1]; 200 μM): 31.90%; Cell Confluence (%) ([1]; 250 μM): 22.99%; Cell Confluence (%) ([1]; 300 μM): 17.30%; Cell Confluence (%) ([1]; 400 μM): 11.42%; Cell Confluence (%) ([1]; 500 μM): 8.79%; Cell Confluence (%) ([1]; 1000 μM): 5.40%; Cell Confluence (%) ([1]; 3000 μM): 3.43%
2 | NC(=O)NOCCCCCCCCCC[P+](c1ccccc1)(c1ccccc1)c1ccccc1.O=C([O-])C(F)(F)F [Mito10-HU, 10-[(carbamoylamino)oxy]-decyltriphenylphosphonium trifluoroacetate] | 26.84 | 1.74 | 1.53 | 8500 ± 410 | 9600 ± 390 | 9600 | > 20000 | dose-dependently inhibited proliferation | 8000 | – | – | Cell Confluence (%) ([1]; 0.1 μM): 82.13%; Cell Confluence (%) ([1]; 0.3 μM): 84.69%; Cell Confluence (%) ([1]; 1 μM): 83.91%; Cell Confluence (%) ([1]; 3 μM): 64.31%; Cell Confluence (%) ([1]; 5 μM): 67.01%; Cell Confluence (%) ([1]; 12.5 μM): 13.75%; Cell Confluence (%) ([1]; 15 μM): 8.68%; Cell Confluence (%) ([1]; 20 μM): 3.45%; inhibition of cell proliferation, combination with AZD-3965 ([1]; Mito10-HU (5 μM) together with AZD-3965 (100 μM), HCT-116): synergistically inhibited; inhibition of cell proliferation, combination with syrosingopine (combination index) ([1]; Mito10-HU (5 μM) together with syrosingopine (7.5 μM), HCT116): synergistic
3 | NC(=O)NOCCCCCCCCCCCCCC[P+](c1ccccc1)(c1ccccc1)c1ccccc1.O=C([O-])C(F)(F)F [Mito14-HU, 14-[(carbamoylamino)oxy]-tetradecyltriphenylphosphonium trifluoroacetate] | – | – | – | 900 ± 40 | 890 ± 100 | 890 | 940 ± 990 | dose-dependently inhibited proliferation | 740 | dose-dependently inhibited | – | effect on M-MDSC (M-MDSC; three days): dose-dependently inhibited
4 | NC(=O)NOCCCCCCCCCCCC[P+](c1ccccc1)(c1ccccc1)c1ccccc1.O=C([O-])C(F)(F)F [Mito12-HU, 12-[(carbamoylamino)oxy]-dodecyltriphenylphosphonium trifluoroacetate] | – | – | – | 1800 ± 50 | 2600 ± 110 | 2600 | > 4000 | dose-dependently inhibited proliferation | 1800 | – | – | Complex III activity (OCR, % of control) ([2]; 1.5 μM): 74.02 % of control; Complex III activity (OCR, % of control) ([2]; 2 μM): 55.15 % of control; Complex III activity (OCR, % of control) ([2]; 2.5 μM): 51.26 % of control; Complex III activity (OCR, % of control) ([2]; 4 μM): 35.02 % of control; Complex III activity (OCR, % of control) ([2]; 7.5 μM): 24.56 % of control
5 | NC(=O)NOCCCCCCCCCCCCCCCC[P+](c1ccccc1)(c1ccccc1)c1ccccc1.O=C([O-])C(F)(F)F [Mito16-HU, 16-[(carbamoylamino)oxy]-hexadecyltriphenylphosphonium trifluoroacetate] | – | – | – | 500 ± 10 | 440 ± 110 | 440 | 560 ± 120 | dose-dependently inhibited proliferation | 510 | greater inhibitory effects | 79.37 % of control | Complex III activity (OCR, % of control) ([2]; 0.4 μM): 81.38 % of control; Complex III activity (OCR, % of control) ([2]; 0.6 μM): 80.12 % of control; Complex III activity (OCR, % of control) ([2]; 0.8 μM): 68.47 % of control
6 | NC(=O)NOCCCCCCCCCCCCCCCCCCCC[P+](c1ccccc1)(c1ccccc1)c1ccccc1.O=C([O-])C(F)(F)F [Mito20-HU, 20-[(carbamoylamino)oxy]-eicosanyltriphenylphosphonium trifluoroacetate] | – | – | – | 230 ± 20 | 440 ± 90 | 440 | > 1000 | dose-dependently inhibited proliferation | 230 | – | 102.43 % of control | Complex III activity (OCR, % of control) ([2]; 0.03 μM): 98.80 % of control; Complex III activity (OCR, % of control) ([2]; 0.1 μM): 106.63 % of control; Complex III activity (OCR, % of control) ([2]; 0.2 μM): 101.11 % of control; Complex III activity (OCR, % of control) ([2]; 0.3 μM): 107.99 % of control; Complex III activity (OCR, % of control) ([2]; 20 μM): 12.77 % of control

Source: patent publication US20240109925A1, “Enhanced Anti-Proliferative and Antitumor Immune Effects of Mitochondria-Targeted Hydroxyurea” (The Medical College of Wisconsin, Inc., priority 2021, published 2024)
